What all share (format): biochemical
In one experiment the target is Asp-2 (Homo sapiens, UniProt P56817). Description: Asp-2 Inhibitory Assay (FAM-[SEVNLDAEFK]-TAMRA substrate cleavage, fluorescence). As to conditions: Assay (I). The method, then: (I) Asp-2 Inhibitory Assay
(§1) For each compound being assayed, in a 384 well plate, is added:
(§2) a) 1 μl of a DMSO solution of the test compound (IC50 curve uses ten 1 in 2 serial dilutions from 500 μM).
b) 10 μl of substrate (FAM-[SEVNLDAEFK]-TAMRA) solution in buffer. This is prepared by diluting 2 ml of a 2 mM DMSO solution of the substrate into 400 ml of buffer (100 mM Sodium acetate pH=4.5, 1 l Milli-Q water, 0.06% Triton X-100 (0.5 ml/l), pH adjusted to 4.5 using glacial acetic acid). Aminomethyl fluorescein (FAM) and tetramethyl rhodamine (TAMRA) are fluorescent molecules which co-operate to emit fluorescence at 535 nm upon cleavage of the SEVNLDAEFK peptide. c) 10 μl enzyme solution. This is prepared by diluting 16 ml of a 500 nM enzyme solution into 384 ml of buffer (prepared as above).
(§3) Blank wells (enzyme solution replaced by buffer) are included as controls on each plate. Wells are incubated for 1 h at room temperature and fluorescence read using a Tecan Ultra Fluorimeter/Spectrophotometer (485 nm excitation, 535 nm emission).

Another experiment has as its target Cathepsin D (Homo sapiens, UniProt P07339). Description: Cathepsin D Inhibitory Assay (FAM-SEVNLDAEFK-TAMRA substrate cleavage, fluorescence). As to conditions: Assay (III). The method, then: (II) Cathepsin D Inhibitory Assay
as §1, §2
b) 10 μl of substrate (FAM-SEVNLDAEFK-TAMRA) solution in buffer. This is prepared by diluting 2 ml of a 2 mM DMSO solution of the substrate into 400 ml of buffer (100 mM Sodium acetate pH=4.5, 1 l Milli-Q water, 0.06% Triton X-100 (0.5 ml/l), pH adjusted to 4.5 using glacial acetic acid). c) 10 μl enzyme solution. This is prepared by diluting 1.6 ml of a 200 unit/ml (in 10 mM HCl) enzyme solution into 398.4 ml of buffer (prepared as above).
as §3

The next experiment addresses T1, Asp-1 (Homo sapiens, UniProt Q9Y5Z0).
T1 sequence (Q9Y5Z0 63-518): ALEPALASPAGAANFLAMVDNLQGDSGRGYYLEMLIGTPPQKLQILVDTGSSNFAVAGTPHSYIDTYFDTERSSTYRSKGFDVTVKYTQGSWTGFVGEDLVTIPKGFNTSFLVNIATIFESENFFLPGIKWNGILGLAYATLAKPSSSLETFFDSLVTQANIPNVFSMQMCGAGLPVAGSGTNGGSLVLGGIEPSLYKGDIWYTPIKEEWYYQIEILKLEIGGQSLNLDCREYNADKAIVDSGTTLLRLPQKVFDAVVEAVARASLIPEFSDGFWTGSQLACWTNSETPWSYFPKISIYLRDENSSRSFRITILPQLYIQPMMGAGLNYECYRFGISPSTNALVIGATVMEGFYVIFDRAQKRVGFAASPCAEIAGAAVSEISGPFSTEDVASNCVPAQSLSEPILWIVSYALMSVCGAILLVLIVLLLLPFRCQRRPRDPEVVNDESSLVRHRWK
Description: Asp-1 Inhibitory Assay (FAM-[SEVNLDAEFK]-TAMRA substrate cleavage, fluorescence). Conditions: Assay (II), pH 4.5, 2 h room temperature. The procedure:
(II) Asp-1 Inhibitory Assay
as §1, §2
b) 10 μl of substrate (FAM-[SEVNLDAEFK]-TAMRA) solution in buffer. This is prepared by diluting 2 ml of a 2 mM DMSO solution of the substrate into 400 ml of buffer (100 mM Sodium acetate pH=4.5, 1 l Milli-Q water, 0.06% Triton X-100 (0.5 ml/l), pH adjusted to 4.5 using glacial acetic acid). c) 10 μl enzyme solution. This is prepared by diluting 4 ml of a 6.3 μM enzyme solution into 496 ml of buffer (100 mM Sodium acetate pH=4.5, 40 mM sodium chloride, 900 ml Milli-Q water, 100 ml glycerol, 0.2% CHAPS (2 g/l), pH adjusted to 4.5 using glacial acetic acid).
Blank wells (enzyme solution replaced by buffer) are included as controls on each plate. Wells are incubated for 2 h at room temperature and fluorescence read using a Tecan Ultra Fluorimeter/Spectrophotometer (485 nm excitation, 535 nm emission).

The mark [1] stands for this setting: range given for a group of Examples, read-out: range of inhibition (Asp-2).
The mark [2] stands for this setting: range given for a group of Examples, read-out: range of inhibition (CatD).
Setting [3] is: pH 4.5, 1 h room temperature, read-out: Asp-2 IC50.
Where [4] appears, read: pH 4.5, 1 h room temperature, read-out: Cat. D IC50.

Like-named read-outs stand apart in the source and are kept apart here.

Asp-2, sequence (P56817 46-501): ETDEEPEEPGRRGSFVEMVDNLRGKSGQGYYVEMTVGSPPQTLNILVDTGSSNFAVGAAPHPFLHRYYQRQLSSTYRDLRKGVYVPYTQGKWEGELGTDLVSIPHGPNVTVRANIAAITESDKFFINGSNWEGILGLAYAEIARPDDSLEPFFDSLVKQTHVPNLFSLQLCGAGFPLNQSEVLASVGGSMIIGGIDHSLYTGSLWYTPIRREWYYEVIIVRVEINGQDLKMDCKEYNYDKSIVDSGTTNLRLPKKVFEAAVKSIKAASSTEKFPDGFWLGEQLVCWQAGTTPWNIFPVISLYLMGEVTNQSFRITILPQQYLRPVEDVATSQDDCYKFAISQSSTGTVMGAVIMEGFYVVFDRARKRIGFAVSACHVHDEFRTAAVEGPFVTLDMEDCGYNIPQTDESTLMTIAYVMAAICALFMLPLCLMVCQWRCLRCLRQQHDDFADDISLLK
Cathepsin D, sequence (P07339 65-412, species assumed): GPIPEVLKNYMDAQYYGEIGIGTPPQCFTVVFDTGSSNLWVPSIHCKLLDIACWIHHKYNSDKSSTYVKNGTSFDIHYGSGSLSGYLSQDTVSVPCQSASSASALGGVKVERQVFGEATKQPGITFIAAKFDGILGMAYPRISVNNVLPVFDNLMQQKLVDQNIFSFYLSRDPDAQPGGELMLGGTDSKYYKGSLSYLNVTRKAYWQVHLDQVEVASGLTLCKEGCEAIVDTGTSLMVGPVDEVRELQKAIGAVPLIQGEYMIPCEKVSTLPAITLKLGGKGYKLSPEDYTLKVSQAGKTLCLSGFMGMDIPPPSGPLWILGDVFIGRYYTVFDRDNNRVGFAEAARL

Regarding `CC(C)Oc1cc(C(=O)N[C@@H](Cc2ccccc2)[C@@H](O)C[C@@H](C)C(=O)NC2CC3CCC2C3)cc(N2CCCC2=O)c1` (stereo partly drawn) [Example E14, N-[(1S,2S,4R)-1-Benzyl-4-(bicyclo[2.2.1]hept-2-ylcarbamoyl)-2-hydroxypentyl]-3-isopropoxy-5-(2-oxopyrrolidin-1-yl)benzamide], the results for the IC50 at Asp-2 (setting [1]) and on Cathepsin D (setting [2]) were 2 to 30 nM and 340 to 3000 nM, respectively.

With `C[C@H](C[C@H](O)[C@H](Cc1ccccc1)NC(=O)c1ccc(F)c(N2CCCC2=O)c1)C(=O)NCCC(C)(C)C` (stereo in doubt) [Example E1, N-[(1S,2S,4R)-1-Benzyl-4-(3,3-dimethylbutylcarbamoyl)-2-hydroxypentyl]-4-fluoro-3-(2-oxopyrrolidin-1-yl)-benzamide], the IC50 on Asp-2 (setting [3]) worked out at 600 nM; on Cathepsin D (setting [4]) it was 13000 nM; on Asp-1, 6000 nM.

For the compound `CC(C)Oc1cc(C(=O)N[C@@H](Cc2ccccc2)[C@@H](O)C[C@@H](C)C(=O)NC2CCC2)cc(N2CCCC2=O)c1` [Example E26, N-[(1S,2S,4R)-1-Benzyl-4-(cyclobutylcarbamoyl)-2-hydroxypentyl]-3-isopropoxy-5-(2-oxopyrrolidin-1-yl)benzamide], the IC50 at Asp-2 (setting [1]) lay in the range of 2 to 30 nM; on Cathepsin D (setting [2]), 340 to 3000 nM.

In the case of `CC(=O)Nc1cc(C(=O)N[C@@H](Cc2ccccc2)[C@@H](O)C[C@@H](C)C(=O)NC2CC3CCC2C3)cc(N2CCCC2=O)c1` (stereo partly drawn) [Example E10, 3-Acetylamino-N-[(1S,2S,4R)-1-benzyl-4-(bicyclo[2.2.1]hept-2-ylcarbamoyl)-2-hydroxypentyl]-5-(2-oxopyrrolidin-1-yl)benzamide], the IC50 on Asp-2 (setting [1]) is 2 to 30 nM; on Cathepsin D (setting [2]), 340 to 3000 nM.

As to `C[C@H](C[C@H](O)[C@H](Cc1ccccc1)NC(=O)c1cc(N2CCCC2=O)cc(N2CCCC2=O)c1F)C(=O)NC1CC2CCC1C2` (stereo partly drawn) [Example E22, N-[(1S,2S,4R)-1-Benzyl-4-(bicyclo[2.2.1]hept-2-ylcarbamoyl)-2-hydroxypentyl]-2-fluoro-3,5-bis-(2-oxopyrrolidin-1-yl)benzamide], the IC50 at Asp-2 (setting [1]) fell in the range of 2 to 30 nM; on Cathepsin D (setting [2]), 340 to 3000 nM.

As for `C=CCOc1cc(C(=O)N[C@@H](Cc2ccccc2)[C@@H](O)C[C@@H](C)C(=O)NCCC(C)(C)C)cc(N2CCCC2=O)c1` [Example E3, 3-Allyloxy-N-[(1S,2S,4R)-1-benzyl-4-(3,3-dimethylbutylcarbamoyl)-2-hydroxypentyl]-5-(2-oxopyrrolidin-1-yl)-benzamide], the IC50 at Asp-2 (setting [3]) worked out at 60 nM; on Cathepsin D (setting [4]) it was 2900 nM; on Asp-1, 420 nM.

For the compound `CCCOc1cc(C(=O)N[C@@H](Cc2ccccc2)[C@@H](O)C[C@@H](C)C(=O)NCCC(C)(C)C)cc(N2CCCC2=O)c1` [Example E4, N-[(1S,2S,4R)-1-Benzyl-4-(3,3-dimethylbutylcarbamoyl)-2-hydroxypentyl]-3-(2-oxopyrrolidin-1-yl)-5-propoxybenzamide], the IC50 at Asp-2 (setting [3]) was found to be 35 nM; on Cathepsin D (setting [4]), 1800 nM; against Asp-1, 150 nM.

Regarding `C[C@H](C[C@H](O)[C@H](Cc1ccccc1)NC(=O)c1cccc(N2CCCC2=O)c1F)C(=O)NC1CC2CCC1C2` (stereo partly drawn) [Example E21, N-[(1S,2S,4R)-1-Benzyl-4-(bicyclo[2.2.1]hept-2-ylcarbamoyl)-2-hydroxypentyl]-2-fluoro-3-(2-oxopyrrolidin-1-yl)-benzamide], the figures for the IC50 at Asp-2 (setting [1]) and on Cathepsin D (setting [2]) were 2 to 30 nM and 340 to 3000 nM, respectively.

As for `C[C@H](C[C@H](O)[C@H](Cc1ccccc1)NC(=O)c1cc(N2CCCC2=O)cc(N2CCCC2=O)c1F)C(=O)NC1CCC(C(C)(C)C)CC1` (stereo partly drawn) [Example E32, N-[(1S,2S,4R)-1-Benzyl-4-(4-tert-butylcyclohexylcarbamoyl)-2-hydroxypentyl]-2-fluoro-3,5-bis-(2-oxopyrrolidin-1-yl)benzamide], the IC50 at Asp-2 (setting [1]) was in the range of 2 to 30 nM; at Cathepsin D (setting [2]) it was 340 to 3000 nM.

With `C[C@H](C[C@H](O)[C@H](Cc1ccccc1)NC(=O)c1cc(N2CCCC2=O)cc(N2CCCC2=O)c1)C(=O)NC1CC2CCC1C2` (stereo partly drawn) [Example E8, N-[(1S,2S,4R)-1-Benzyl-4-(bicyclo[2.2.1]hept-2-ylcarbamoyl)-2-hydroxypentyl]-3,5-bis-(2-oxopyrrolidin-1-yl)benzamide], the IC50 fell in the range of 2 to 30 nM on Asp-2 (setting [1]) and 340 to 3000 nM at Cathepsin D (setting [2]).

Source of the values: patent publication US6992103B2, “Benzamide derivatives, processes for their preparation, and their pharmaceutical use” (SmithKline Beecham P.L.C., priority 2001, dated 2006).
